Experimental findings from US7988972B2, “Immunoreactive peptides from Epstein-Barr virus” (Ortho-Clinical Diagnostics, Inc., priority 1993, dated 2011) are described below.

The test system of assay [1] is peripheral blood lymphocytes (PBL). Description: Proliferation assay of peripheral blood lymphocytes (3H-thymidine incorporation). Format: cell-based, human. The settings on record: for 3H-thymidine Incorporation (cpm + S.D.) / S.I. (stimulation index): PBL from anti-VCA-positive, anti-EA-positive donor, 5 days. The procedure: Proliferation assays. T-cell proliferation assays using the native p17 or p50 polypeptide or the synthetic peptides were performed as previously described in detail (Pothen et al., Int. J. Cancer, 49:656-660, 1991). Briefly, peripheral blood lymphocytes (PBLO from sero-positive donors were isolated on FICOLL-HYPAQUE gradients, washed and resuspended in RPMI 1640 media containing 10% heat-inactivated human A^+ serum from a sero-negative donor. Cells (1×10^5 per 0.1 ml) were then added to each well in 96-well, round-bottomed tissue culture plates (Costar, Cambridge, Mass.). The different antigen preparations were added to triplicate wells in 0.1 ml volumes and the plates were incubated at 37° C. for 5 days. ^3H-thymidine (5 Ci per mM) was added at a concentration of 1 μCi per well over the last 4 hours of culture. The cells were then harvested with a multichannel sample harvester and ^3H-thymidine incorporation was determined using a Beckman Model LS 3801 liquid scintillation counter. Stimulation indices for the test antigens were calculated by dividing the average counts per minute (CPMO for the test antigens by the average CPM of the medium control wells.
PBL from asymptomatic EBV-infected individuals were tested for response to any of the three p17 synthetic peptides (Table 1) by a proliferation assay using lymphocytes previously shown to proliferate in the presence of native p17 (Pothen et al., Int. J. Cancer, 49:656-660, 1991). Different concentrations of the synthetic peptides were incubated with the PBL for 5 days and then proliferation was assayed by the incorporation of ^3H-thymidine. The native p17 purified from activated P3HR-1 cells gave a S.I. of 15.8 in this experiment. […] Neither of the other synthetic peptides induced a proliferation response at the concentrations tested.
PBL from 3 anti-VCA-positive anti-EA-antibody-negative individuals were also examined in the proliferation assay with the three synthetic peptides. Again, all 3 PBL preparations responded to the highest concentrations of p17.1 with S.I.'s ranging from 3.5-11. Two of the preparations (FIG. 2A,C) also proliferated in the presence of lower concentrations of antigen with S.I.'s of 3 and 5 respectively. […] These experiments established that T-lymphocytes from EBV-infected individuals, irrespective of the presence of antibody to EA, recognized a dominant epitope on p17.
A general note: Uptake of a labelled nucleoside into DNA is a usual measure of proliferation.

The test system of assay [2] is anti-EA antibodies in human sera. Description: ELISA, serological reactivity of human sera with p17 synthetic peptides. The class given is binding. The settings on record: for No. Positive/No. Tested / No. Positive/No. Tested (%): sera 1:10. The procedure: ELISA. The ELISA for measuring specific antibodies to p17, p50 or to the synthetic peptides was performed as previously described in detail (Luka et al., J. Immunol. Methods, 67:145-156, 1984). Aliquots of different antigen concentrations were diluted in 0.5M Na2CO3 buffer, pH 9.5, added to wells in polystyrene microtiter plates (Linbro) and the plates incubated overnight at 4° C. Following this incubation period, the plates were washed 5× with Tris-HCl, pH 7.4, containing 0.05% Tween 20, 50 mM NaCl and 100 mg per liter albumin (Sigma) and dried for 20 minutes at room temperature. The plates were screened with different anti-EA-R or EA-D antibody positive human sera and the monoclonal antibody to p17 or p50 to identify the optimal concentration of antigen to be used in the serological studies. Alkaline-phosphatase-labelled goat anti-human IgG (Sigma) or goat anti-mouse IgG (Sigma) was used as the indicator system.
For the testing of human sera for antibodies to native p17, p50 or to the synthetic peptides, sera were diluted 1:10 in ELISA buffer, added in 0.1 ml volumes to wells coated with optimal concentrations of antigen and the plates were incubated for 60 minutes at room temperature. After 4 washes with ELISA buffer, 100 μl of alkaline phosphatase-labelled goat anti-human IgG in ELISA buffer were added to each well and the plates were incubated at room temperature for 1 hour. Following four more washes in buffer, the enzyme reaction was performed by dissolving 1 mg per ml of Sigma alkaline phosphatase substrate in 1M diethanolamine buffer, pH 10.4, containing 1 mM MgCl2 and 0.1 mM ZnCl2, and 100 μl of the mixture was then added to each well. The reaction was allowed to proceed for 30 minutes at 37° C. and then the plates were screened directly with a microplate reader, TITERTEK MULTISKAN MC (Flow), at 420 nm. Readings above 0.1 which was 2× the background noted with antibody-negative sera were considered positive reactions.
Studies were designed to determine the serological reactivity with the p17 synthetic epitopes. For this purpose, 87 anti-EA antibody-positive sera (titer>160) were tested in the ELISA against optimal pre-determined concentrations (2 μg per well) of the p17 synthetic peptides. The sera were obtained from 28 patients with African Burkift's lymphoma (ABL) collected during the Ghanian Burkitt Tumor Project, and from 28 North American patients with intermediate large cell, or high grade non-Hodgkin's lymphoma (NANHL). The donors included both HIV-positive and HIV-negative individuals. In addition, sera from 31 North American nasopharyngeal carcinoma (NANPC) patients were examined in this study (Pearson, G. R., et al., Cancer, 51:260-268, 1983). To validate the EA specificity of the serological reactions, the results with these sera were compared with results with 23 VCA and EA antibody-negative sera and 30 VCA-antibody-positive, EA-antibody negative sera. In contrast to the T-cell proliferation results, all three synthetic peptides reacted with the EA antibody-positive sera to varying degrees with p17.1 again being the dominant epitope. Approximately 60% of the anti-EA-positive sera reacted with p17.1, 48% with p17.2 and 23% with p17.3.
Seventy-one percent of the sera from ABL patients and 93% of the sera from patients with NANHL reacted with p17.1 as opposed to 23% of the sera from North American patients with NPC.
Background: An ELISA detects its analyte on a solid surface through an enzyme-linked reagent.

[3] abbreviates: serum donors: Lymphoma (total), EA titers >160.
[4] abbreviates: serum donors: Nasopharyngeal carcinoma (North American), EA titers >160.
[5] abbreviates: serum donors: Non-Hodgkin's lymphoma (North American), EA titers >160.
Setting [6] is: serum donors: Normal (VCA + EA-).

Regarding “ETFTETWNRFITHTE [p17.1, synthetic peptide from 17 Kd early antigen (EA-R) region of EBV]”, the S.I. in assay [1] (PBL from 3 anti-VCA-positive anti-EA-antibody-negative individuals, highest concentrations) is reported as 3.5-11; in assay [1] (PBL preparation of FIG. 2A (anti-VCA-positive, anti-EA-negative), lower concentrations of antigen) it was 3; in assay [1] (PBL preparation of FIG. 2C (anti-VCA-positive, anti-EA-negative), lower concentrations of antigen) it was 5. Also, the results for the “3H-thymidine Incorporation (cpm + S.D.)” value in assay [1] (3.12 μg/ml), in assay [1] (12.5 μg/ml) and in assay [1] (50 μg/ml) were 263 ± 57 cpm, 689 ± 88 cpm and 1584 ± 37 cpm, respectively. The “S.I. (stimulation index)” value in assay [1] (3.12 μg/ml) worked out at 1.8; in assay [1] (12.5 μg/ml), 4.7; in assay [1] (50 μg/ml) it was 10.8. The proliferation response result in assay [1] (unfractionated PBL of donors A and B, highest concentrations tested (100 μg per ml donor A, 50 μg per ml donor B)) is recorded as “proliferated”. The “share of anti-EA-positive sera that reacted” value in assay [2] (87 anti-EA antibody-positive sera (titer>160), 2 μg peptide per well) is on record as “Approximately 60%”. For the same sequence, the “No. Positive/No. Tested” value in assay [2] (serum donors: Burkitt's lymphoma (African), EA titers >160) was 20/28; in assay [2] (setting [3]), 46/56; in assay [2] (setting [4]), 7/31; in assay [2] (setting [5]), 26/28; in assay [2] (setting [6]), 0/30; in assay [2] (serum donors: Normal (VCA − EA-)), 0/23. The “No. Positive/No. Tested (%)” value is recorded as 82% in assay [2] (setting [3]), 23% in assay [2] (setting [4]), 93% in assay [2] (setting [5]) and 0% in assay [2] (setting [6]).
